Experimental data taken from US8685974B2 (Bayer CropScience AG, priority 2009, dated 2014).
Where two headings read alike, the source gives them in different places. Marks after values point to notes of the source that are not given here.

Legend:
Fusarium graminearum = assay type: cell-based; conditions: 50 μM; for % Inhibition of DON/AcDON at 50 μM: 7 days at 28° C.

Fc1ccc(-c2n[nH]cc2-c2ccncc2)s1 [Example 105]
% Inhibition of fungal growth at 50 μM (Fusarium graminearum): 0%
% Inhibition of DON/AcDON at 50 μM (Fusarium graminearum): 88%
log p (pH 2.7): 0.57^[b]

CC(C)n1ncc(-c2ccncc2)c1-c1ccc(F)s1 [Example 109]
% Inhibition of fungal growth at 50 μM (Fusarium graminearum): 49%
% Inhibition of DON/AcDON at 50 μM (Fusarium graminearum): 100%
log p (pH 2.7): 1.51^[b]

C=CCNc1nccc(-c2cn(C(C)CC)nc2-c2ccc(Cl)s2)n1 (stereo not shown) [Example 196]
% Inhibition of fungal growth at 50 μM (Fusarium graminearum): 83%
% Inhibition of DON/AcDON at 50 μM (Fusarium graminearum): 99%
log p (pH 2.3): 3.39^[a]

CCC(C)Nc1nccc(-c2cn(C(C)CC)nc2-c2ccc(Cl)s2)n1 (stereo not shown) [Example 197]
% Inhibition of fungal growth at 50 μM (Fusarium graminearum): 73%
% Inhibition of DON/AcDON at 50 μM (Fusarium graminearum): 90%
log p (pH 2.3): 3.48^[a]

CC(C)n1cc(-c2ccncc2)c(-c2ccc(I)s2)n1 [Example 214]
% Inhibition of fungal growth at 50 μM (Fusarium graminearum): 89%
% Inhibition of DON/AcDON at 50 μM (Fusarium graminearum): 99%
log p (pH 2.7): 1.89^[b]

CC(=O)Nc1cc(-c2cn(C)nc2-c2ccc(NC(C)=O)s2)ccn1 [Example 216]
log p (pH 2.7): 0.76^[b]

CCC(C)n1cc(-c2ccnc(NS(=O)(=O)N(C)C)c2)c(-c2ccc(Cl)s2)n1 (stereo not shown) [Example 217]
log p (pH 2.7): 3.35^[b]

CC(C)n1cc(-c2ccnc(NS(=O)(=O)N(C)C)c2)c(-c2ccc(Cl)s2)n1 [Example 218]
log p (pH 2.7): 3^[b]

CCn1cc(-c2ccnc(NS(=O)(=O)N(C)C)c2)c(-c2ccc(Cl)s2)n1 [Example 219]
log p (pH 2.7): 2.59^[b]

CN(C)S(=O)(=O)Nc1cc(-c2cn(C)nc2-c2ccc(Cl)s2)ccn1 [Example 220]
log p (pH 2.7): 2.23^[b]

CCC(C)n1cc(-c2ccnc(SC)n2)c(-c2ccc(Cl)s2)n1 (stereo not shown) [Example 221]
log p (pH 2.3): 4.88^[a]

CSc1nccc(-c2cn(C(C)C)nc2-c2ccc(Cl)s2)n1 [Example 222]
log p (pH 2.3): 4.44^[a]

CCC(C)n1cc(-c2ccnc(NC(=O)C(C)(C)C)c2)c(-c2ccc(Cl)s2)n1 (stereo not shown) [Example 231]
log p (pH 2.7): 4.35^[b]

CCC(C)n1cc(-c2ccnc(NC(=O)c3ccccc3)c2)c(-c2ccc(Cl)s2)n1 (stereo not shown) [Example 237]
log p (pH 2.7): 4.46^[b]

COCC(=O)Nc1cc(-c2cn(C(C)C)nc2-c2ccc(Cl)s2)ccn1 [Example 244]
% Inhibition of fungal growth at 50 μM (Fusarium graminearum): 100%
% Inhibition of DON/AcDON at 50 μM (Fusarium graminearum): 99%
log p (pH 2.7): 3.25^[b]

CCn1cc(-c2ccnc(NC(=O)N(C)C)c2)c(-c2ccc(Cl)s2)n1 [Example 251]
% Inhibition of fungal growth at 50 μM (Fusarium graminearum): 100%
% Inhibition of DON/AcDON at 50 μM (Fusarium graminearum): 99%
log p (pH 2.7): 1.72^[b]

CCn1cc(-c2ccnc(NC(=O)c3ccccc3)c2)c(-c2ccc(Cl)s2)n1 [Example 266]
log p (pH 2.7): 3.55^[b]

CCn1cc(-c2ccnc(NC(=O)OC(C)C)c2)c(-c2ccc(Cl)s2)n1 [Example 268]
log p (pH 2.7): 3.35^[b]

Cn1cc(-c2ccnc(NC(=O)c3cccs3)c2)c(-c2ccc(Cl)s2)n1 [Example 273]
log p (pH 2.7): 3.04^[b]

Cn1cc(-c2ccnc(NC(=O)C(C)(C)C)c2)c(-c2ccc(Cl)s2)n1 [Example 283]
log p (pH 2.7): 2.92^[b]

CC(=O)N(C(C)=O)c1cc(-c2cn(C)nc2-c2ccc(N(C(C)=O)C(C)=O)s2)ccn1 [Example 289]
log p (pH 2.7): 1.84^[b]

CC(=O)Nc1ccc(-c2nn(C)cc2-c2ccnc(N(C(C)=O)C(C)=O)c2)s1 [Example 290]
log p (pH 2.7): 1.39^[b]

CSc1ccc(-c2nn(C(C)C)cc2-c2ccncc2)s1 [Example 294]
% Inhibition of fungal growth at 50 μM (Fusarium graminearum): 92%
% Inhibition of DON/AcDON at 50 μM (Fusarium graminearum): 99%
log p (pH 2.7): 1.79^[b]

CSc1ccc(-c2c(-c3ccncc3)cnn2C(C)C)s1 [Example 295]
log p (pH 2.7): 1.78^[b]

Nc1cc(-c2cn(/C=C/F)nc2-c2ccc(Cl)s2)ccn1 [Example 301]
% Inhibition of fungal growth at 50 μM (Fusarium graminearum): 60%
% Inhibition of DON/AcDON at 50 μM (Fusarium graminearum): 99%
log p (pH 2.7): 1.59^[b]

FC=Cn1cc(-c2ccnc(N=C(c3ccccc3)c3ccccc3)c2)c(-c2ccc(Cl)s2)n1 [Example 302]
log p (pH 2.7): 4.67^[b]

CC(C)n1cc(-c2ccnc(N)c2)c(-c2ccc(Cl)s2)n1 [Example 306]
% Inhibition of fungal growth at 50 μM (Fusarium graminearum): 87%
% Inhibition of DON/AcDON at 50 μM (Fusarium graminearum): 100%
log p (pH 2.7): 1.78^[b]

Cn1cc(-c2ccnc(N=C(c3ccccc3)c3ccccc3)c2)c(-c2ccc(Cl)s2)n1 [Example 309]
log p (pH 2.7): 4.67^[b]

CC(C)n1cc(-c2ccnc(N=C(c3ccccc3)c3ccccc3)c2)c(-c2ccc(Cl)s2)n1 [Example 310]
log p (pH 2.7): 4.46^[b]

Cn1cc(-c2ccnc(Cl)c2)c(-c2ccc(Cl)s2)n1 [Example 313]
% Inhibition of fungal growth at 50 μM (Fusarium graminearum): 6%
% Inhibition of DON/AcDON at 50 μM (Fusarium graminearum): 98%
log p (pH 2.7): 3.37^[b]

FC(F)Cn1cc(-c2ccnc(Cl)c2)c(-c2ccc(Cl)s2)n1 [Example 314]
log p (pH 2.7): 3.71^[b]

CC(C)n1cc(-c2ccnc(Cl)c2)c(-c2ccc(Cl)s2)n1 [Example 315]
log p (pH 2.7): 4.44^[b]

CCn1cc(-c2ccnc(Cl)c2)c(-c2ccc(Cl)s2)n1 [Example 316]
% Inhibition of fungal growth at 50 μM (Fusarium graminearum): 37%
% Inhibition of DON/AcDON at 50 μM (Fusarium graminearum): 87%
log p (pH 2.7): 3.89^[b]

Fc1cccc(Cn2cc(-c3ccncc3)c(-c3ccc(Cl)s3)n2)c1F [Example 325]
log p (pH 2.7): 2.39^[b]

CC1(Cn2cc(-c3ccncc3)c(-c3cc4ccsc4s3)n2)CC1(Cl)Cl (stereo not shown) [Example 326]
log p (pH 2.7): 2.62^[b]
logP value of the minor isomer (between parenthesis, Isomer ratio column) (pH 2.7): (2.46)

Fc1cccc(Cn2cc(-c3ccncc3)c(-c3cc4ccsc4s3)n2)c1F [Example 327]
log p (pH 2.7): 1.75^[b]

CC(C)=CCn1cc(-c2ccncc2)c(-c2cc3ccsc3s2)n1 [Example 331]
log p (pH 2.7): 1.69^[b]

ClC(Cl)=CCn1cc(-c2ccncc2)c(-c2cc3ccsc3s2)n1 [Example 335]
log p (pH 2.7): 1.67^[b]

N#CCn1cc(-c2ccncc2)c(-c2cc3ccsc3s2)n1 [Example 336]
log p (pH 2.7): 1.48^[b]

Clc1ccc(Cn2cc(-c3ccncc3)c(-c3cc4ccsc4s3)n2)s1 [Example 339]
log p (pH 2.7): 2.57^[b]
logP value of the minor isomer (between parenthesis, Isomer ratio column) (pH 2.7): (2.35)

CC(C)=CCn1cc(-c2ccncc2)c(-c2ccc(F)s2)n1 [Example 343]
log p (pH 2.7): 1.45^[b]

Fc1ccc(-c2nn(CC=C(Cl)Cl)cc2-c2ccncc2)s1 [Example 346]
log p (pH 2.7): 1.43^[b]

N#Cc1ccccc1Cn1cc(-c2ccncc2)c(-c2ccc(Br)s2)n1 [Example 352]
log p (pH 2.7): 2.13^[b]

CC(C)=CCn1cc(-c2ccncc2)c(-c2ccc(Br)s2)n1 [Example 355]
log p (pH 2.7): 2.35^[b]
logP value of the minor isomer (between parenthesis, Isomer ratio column) (pH 2.7): (2.11)

C=CCn1cc(-c2ccncc2)c(-c2ccc(F)s2)n1 [Example 382]
log p (pH 2.7): 1.54^[b]
logP value of the minor isomer (pH 2.7): (1.48)

C=CCn1cc(-c2ccncc2)c(-c2ccc(Br)s2)n1 [Example 383]
log p (pH 2.7): 1.82^[b]
logP value of the minor isomer (pH 2.7): (1.73)

CC(C)Cn1cc(-c2ccncc2)c(-c2ccc(C#N)s2)n1 [Example 404]
log p (pH 2.7): 1.74^[b]

CC(=O)Nc1cc(-c2cn(C(C)C)nc2-c2ccc(Cl)s2)ccn1 [N-{4-[(3/5)-(5-Chloro-2-thienyl)-1-isopropyl-1H-pyrazol-4-yl]pyridin-2-yl}acetamide]
logP (pH2.7) (pH 2.7): 2.45
logP (pH2.7), minor isomer (pH 2.7): 2.22

N-Butyl-5-[4-(pyridin-4-yl)-1H-pyrazol-3-yl]thiophene-2-carboxamide hydrochloride
logP (pH2.7) (pH 2.7): 1.47
